One assay deals with D(2) dopamine receptor (Homo sapiens, UniProt P14416). The experiment in a line: Displacement of [3H]-raclopride from human D2L receptor expressed in HEK293 cell membranes after 1 hr by Microbeta scintillation counting method.
Assay [1] has as its target T1, 5-hydroxytryptamine receptor 1A (Homo sapiens, UniProt P08908).
T1 sequence (P08908 whole entry): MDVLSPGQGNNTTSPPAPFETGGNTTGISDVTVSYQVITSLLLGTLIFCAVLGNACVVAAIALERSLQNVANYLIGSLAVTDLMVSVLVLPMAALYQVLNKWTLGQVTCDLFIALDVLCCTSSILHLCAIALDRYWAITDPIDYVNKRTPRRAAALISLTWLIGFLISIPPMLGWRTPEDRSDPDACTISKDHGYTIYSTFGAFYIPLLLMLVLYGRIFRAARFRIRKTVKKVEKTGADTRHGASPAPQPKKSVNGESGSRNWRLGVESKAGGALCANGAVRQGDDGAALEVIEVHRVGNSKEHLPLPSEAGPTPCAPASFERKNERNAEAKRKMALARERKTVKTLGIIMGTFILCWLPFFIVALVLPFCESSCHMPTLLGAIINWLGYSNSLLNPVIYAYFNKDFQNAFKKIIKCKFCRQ
The experiment in a line: Displacement of [3H]-8-OH-DPAT from human 5HT1AR expressed in HEK293 cell membranes after 1 hr by Microbeta scintillation counting method. On the technique in general: Displacement assays read how much labelled ligand stays bound in the presence of the test substance.

Assay [2] deals with 5-hydroxytryptamine receptor 7 (Homo sapiens, UniProt P34969). The experiment in a line: Displacement of [3H]-5-CT from human 5HT7BR expressed in HEK293 cell membranes after 1 hr by Microbeta scintillation counting method.
Sequence of 5-hydroxytryptamine receptor 7 (P34969 whole entry): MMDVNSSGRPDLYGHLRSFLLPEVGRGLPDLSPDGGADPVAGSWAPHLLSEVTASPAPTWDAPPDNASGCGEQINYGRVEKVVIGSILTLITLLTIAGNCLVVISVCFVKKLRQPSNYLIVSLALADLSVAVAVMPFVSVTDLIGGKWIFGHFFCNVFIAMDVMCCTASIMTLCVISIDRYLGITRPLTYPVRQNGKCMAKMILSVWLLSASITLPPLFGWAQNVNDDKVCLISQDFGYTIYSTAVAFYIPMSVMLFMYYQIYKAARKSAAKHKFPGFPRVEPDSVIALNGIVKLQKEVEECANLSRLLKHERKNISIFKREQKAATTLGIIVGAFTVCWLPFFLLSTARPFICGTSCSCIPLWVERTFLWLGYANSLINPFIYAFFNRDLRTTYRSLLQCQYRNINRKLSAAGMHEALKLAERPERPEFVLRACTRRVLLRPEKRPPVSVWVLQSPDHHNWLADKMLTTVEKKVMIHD

Sequence of D(2) dopamine receptor (P14416 whole entry): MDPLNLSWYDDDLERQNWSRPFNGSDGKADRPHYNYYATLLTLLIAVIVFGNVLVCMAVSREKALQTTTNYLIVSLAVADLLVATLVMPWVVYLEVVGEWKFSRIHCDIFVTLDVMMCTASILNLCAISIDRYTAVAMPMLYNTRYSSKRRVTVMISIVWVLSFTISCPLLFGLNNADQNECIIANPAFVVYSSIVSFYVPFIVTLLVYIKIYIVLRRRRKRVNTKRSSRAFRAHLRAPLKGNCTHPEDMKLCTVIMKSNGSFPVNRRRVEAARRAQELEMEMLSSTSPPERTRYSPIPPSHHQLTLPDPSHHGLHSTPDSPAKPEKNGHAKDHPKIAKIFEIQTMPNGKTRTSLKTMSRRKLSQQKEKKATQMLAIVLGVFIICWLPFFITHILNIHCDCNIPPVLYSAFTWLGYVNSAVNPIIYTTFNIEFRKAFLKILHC

Broadly, the Ki is a measure of affinity in units of concentration, obtained from inhibition or displacement. On to `N#Cc1ccccc1N1CCN(CC(O)CN2C(=O)NC(c3ccccc3)(c3ccccc3)C2=O)CC1` (racemic), for which the Ki is 534 nM on D(2) dopamine receptor, 341 nM in assay [1] and 1200 nM in assay [2].

As to `COc1ccccc1N1CCN(CC(O)CN2C(=O)NC(c3ccccc3)(c3ccccc3)C2=O)CC1` (racemic), the Ki worked out at 497 nM on D(2) dopamine receptor, 197 nM in assay [1] and 566 nM in assay [2].

As for `COc1ccc(C2(C)NC(=O)N(CC(O)CN3CCN(c4ccccc4C#N)CC3)C2=O)cc1` (racemic), in assay [1], the Ki worked out at 219 nM.

For `COc1ccccc1N1CCN(CC(O)CN2C(=O)NC(C)(c3ccc(C)cc3)C2=O)CC1` (racemic), the Ki at D(2) dopamine receptor amounted to 876 nM; in assay [1], 184 nM; in assay [2] it was 50 nM.

Source of the values: ChEMBL document CHEMBL4145534, “Computer-aided insights into receptor-ligand interaction for novel 5-arylhydantoin derivatives as serotonin 5-HT7 receptor agents with antidepressant activity” (Eur J Med Chem, 2018).
